# Where a name gives a salt, the structure may show the parent alone.
row,Compound,melting point [°C]
1,"CCCc1nc2c(N)nc3ccccc3c2n1CCC(N)=O (as salt: hydrochloride) [Example 18, 3-(4-Amino-2-propyl-1H-imidazo[4,5-c]quinolin-1-yl)propanamide hydrochloride]",242 to 243
2,"CC(C)(Cn1cnc2c(N)nc3ccccc3c21)C(N)=O (as salt: salt) [Example 62, 3-(4-Amino-1H-imidazo[4,5-c]quinolin-1-yl)-2,2-dimethylpropanamide]",287 to 289
3,"CCCc1nc2c(N)nc3ccccc3c2n1CCCC(=O)N1CCOCC1 [Example 1, 1-(4-Morpholin-4-yl-4-oxobutyl)-2-propyl-1H-imidazo[4,5-c]quinolin-4-amine]",200 to 202
4,"CCCNC(=O)CCCn1c(CCC)nc2c(N)nc3ccccc3c21 [Example 2, 4-(4-Amino-2-propyl-1H-imidazo[4,5-c]quinolin-1-yl)-N-propylbutanamide]",161 to 163
5,"CCCc1nc2c(N)nc3ccccc3c2n1CCCC(N)=O [Example 4, 4-(4-Amino-2-propyl-1H-imidazo[4,5-c]quinolin-1-yl)butanamide]",249 to 251
6,"CCOCc1nc2c(N)nc3ccccc3c2n1CCCC(=O)N1CCOCC1 [Example 5, 2-(Ethoxymethyl)-1-(4-morpholin-4-yl-4-oxobutyl)-1H-imidazo[4,5-c]quinolin-4-amine]",201 to 203
7,"CCCc1nc2c(N)nc3ccccc3c2n1CCCCCC(=O)N1CCOCC1 [Example 6, 1-(6-Morpholin-4-yl-6-oxohexyl)-2-propyl-1H-imidazo[4,5-c]quinolin-4-amine]",149 to 151
8,"CCCNC(=O)CCCCCn1c(CCC)nc2c(N)nc3ccccc3c21 [Example 7, 6-(4-Amino-2-propyl-1H-imidazo[4,5-c]quinolin-1-yl)-N-propylhexanamide]",139 to 141
9,"CCCc1nc2c(N)nc3ccccc3c2n1CCCCCC(=O)NC [Example 8, 6-(4-Amino-2-propyl-1H-imidazo[4,5-c]quinolin-1-yl)-N-methylhexanamide]",158 to 159
10,"CCCc1nc2c(N)nc3ccccc3c2n1CCCCCC(N)=O [Example 9, 6-(4-Amino-2-propyl-1H-imidazo[4,5-c]quinolin-1-yl)hexanamide]",210 to 211
11,"CCCNC(=O)CCCCCn1cnc2c(N)nc3ccccc3c21 [Example 10, 6-(4-Amino-1H-imidazo[4,5-c]quinolin-1-yl)-N-propylhexanamide]",128 to 130
12,"Nc1nc2ccccc2c2c1ncn2CCCCCC(=O)N1CCOCC1 [Example 11, 1-(6-Morpholin-4-yl-6-oxohexyl)-1H-imidazo[4,5-c]quinolin-4-amine]",166 to 168
13,"COCCc1nc2c(N)nc3ccccc3c2n1CCCCCC(=O)N1CCOCC1 [Example 12, 2-(2-Methoxyethyl)-1-(6-morpholin-4-yl-6-oxohexyl)-1H-imidazo[4,5-c]quinolin-4-amine]",131 to 132
14,"CCOCc1nc2c(N)nc3ccccc3c2n1CCCCCC(=O)N1CCOCC1 [Example 13, 2-(Ethoxymethyl)-1-(6-morpholin-4-yl-6-oxohexyl)-1H-imidazo[4,5-c]quinolin-4-amine]",160 to 162
15,"CCCNC(=O)CCCCCn1c(COCC)nc2c(N)nc3ccccc3c21 [Example 14, 6-[4-Amino-2-(ethoxymethyl)-1H-imidazo[4,5-c]quinolin-1-yl]-N-propylhexanamide]",161 to 162
16,"CCCNC(=O)CCn1c(CCC)nc2c(N)nc3ccccc3c21 [Example 15, 3-(4-Amino-2-propyl-1H-imidazo[4,5-c]quinolin-1-yl)-N-propylpropanamide]",157 to 158

row,Compound,melting point [°C]
1,"CCCc1nc2c(N)nc3ccccc3c2n1CCC(=O)N1CCOCC1 [Example 16, 1-(3-Morpholin-4-yl-3-oxopropyl)-2-propyl-1H-imidazo[4,5-c]quinolin-4-amine]",172 to 173
2,"CCCc1nc2c(N)nc3ccccc3c2n1CCC(=O)NC [Example 17, 3-(4-Amino-2-propyl-1H-imidazo[4,5-c]quinolin-1-yl)-N-methylpropanamide]",177 to 178
3,"COCCc1nc2c(N)nc3ccccc3c2n1CCC(=O)N1CCOCC1 [Example 19, 2-(2-Methoxyethyl)-1-(3-morpholin-4-yl-3-oxopropyl)-1H-imidazo[4,5-c]quinolin-4-amine]",125 to 126
4,"CNC(=O)CCn1cnc2c(N)nc3ccccc3c21 [Example 20, 3-(4-Amino-1H-imidazo[4,5-c]quinolin-1-yl)-N-methylpropanamide]",> 260
5,"CCCNC(=O)CCn1cnc2c(N)nc3ccccc3c21 [Example 21, 3-(4-Amino-1H-imidazo[4,5-c]quinolin-1-yl)-N-propylpropanamide]",212 to 214
6,"Cc1nc2c(N)nc3ccccc3c2n1CCC(=O)N1CCOCC1 [Example 22, 2-Methyl-1-(3-morpholin-4-yl-3-oxopropyl)-1H-imidazo[4,5-c]quinolin-4-amine]",166 to 169
7,"CCOCc1nc2c(N)nc3ccccc3c2n1CCC(=O)N1CCOCC1 [Example 23, 2-(Ethoxymethyl)-1-(3-morpholin-4-yl-3-oxopropyl)-1H-imidazo[4,5-c]quinolin-4-amine]",187 to 189
8,"CCOCc1nc2c(N)nc3ccccc3c2n1CCC(N)=O [Example 24, 3-[4-Amino-2-(ethoxymethyl)-1H-imidazo[4,5-c]quinolin-1-yl]propanamide]",> 250
9,"CCCc1nc2c(N)nc3ccccc3c2n1CCCCCCCCCCCC(=O)NC [Example 25, 12-(4-Amino-2-propyl-1H-imidazo[4,5-c]quinolin-1-yl)-N-methyldodecanamide]",135 to 137
10,"CCCc1nc2c(N)nc3ccccc3c2n1CC(C)(C)C(N)=O [Example 26, 3-(4-Amino-2-propyl-1H-imidazo[4,5-c]quinolin-1-yl)-2,2-dimethylpropanamide]",219 to 221
11,"CCCc1nc2c(N)nc3ccccc3c2n1CC(C)(C)C(=O)N1CCOCC1 [Example 27, 1-(2,2-Dimethyl-3-morpholin-4-yl-3-oxopropyl)-2-propyl-1H-imidazo[4,5-c]quinolin-4-amine]",212 to 214
12,"CCOCc1nc2c(N)nc3ccccc3c2n1CC(C)(C)C(N)=O [Example 28, 3-[4-Amino-2-(ethoxymethyl)-1H-imidazo[4,5-c]quinolin-1-yl]-2,2-dimethylpropanamide]",241 to 243
13,"CCCc1nc2c(N)nc3c(c2n1CCCC(=O)N1CCOCC1)CCCC3 [Example 29, 1-(4-Morpholin-4-yl-4-oxobutyl)-2-propyl-6,7,8,9-tetrahydro-1H-imidazo[4,5-c]quinolin-4-amine]",181 to 183
14,"CCCc1nc2c(N)nc3c(c2n1CCCCCC(=O)N1CCOCC1)CCCC3 [Example 30, 1-(6-Morpholin-4-yl-6-oxohexyl)-2-propyl-6,7,8,9-tetrahydro-1H-imidazo[4,5-c]quinolin-4-amine]",162 to 163
15,"Cc1nc2c(N)nc3ccccc3c2n1CCC(N)=O [Example 31, 3-(4-Amino-2-methyl-1H-imidazo[4,5-c]quinolin-1-yl)propanamide]",237 to 239
16,"CCCNC(=O)CCn1c(C)nc2c(N)nc3ccccc3c21 [Example 32, 3-(4-Amino-2-methyl-1H-imidazo[4,5-c]quinolin-1-yl)-N-propylpropanamide]",188 to 189

# Source: patent US8697873B2, “Amide substituted imidazopyridines, imidazoquinolines, and imidazonaphthyridines” (3M Innovative Properties Company, priority 2004, dated 2014)
